This note sets out measurements from EP0044495B1, “16-Beta ethyl steroids, compositions containing them and process for their preparation” (SCHERING AKTIENGESELLSCHAFT, priority 1980, dated 1982).

For the assay, the system named is Samenblasen- und Prostatagewichts von Ratten. Kind of assay: Antiandrogenic effect: inhibition of the testosterone propionate-induced increase in seminal vesicle and prostate weight of rats after subcutaneous administration. It is filed as in vivo. As to conditions: for Testosteronpropionat-Hemmung Prostata / Testosteronpropionat-Hemmung Samenblase: rats, subcutaneous administration, Dosis 0,3 mg/Tag per animal; for Testosteronpropionat-Hemmung Prostata: prostate weight; for Testosteronpropionat-Hemmung Samenblase: seminal vesicle weight. The text has this: Die neuen Verbindungen der allgemeinen Formel 1 besitzen starke antiandrogene Wirkung.

On to `CC[C@H]1C[C@H]2[C@@H]3CCC4=CC(=O)CCC4=C3CC[C@]2(C)[C@H]1O` [A, 16ß-Ethyl-17ß-hydroxy-4,9(10)-estradien-3-on], for which the “Testosteronpropionat-Hemmung Prostata” value turned out to be 18% and the “Testosteronpropionat-Hemmung Samenblase” value was 34%. Moreover, the “antiandrogene Wirkung” value (result in words, comparison of A with B at 0,3 mg pro Tier und Tag, or general statement) is listed as “signifikant wirksamer”.

For `CC[C@H]1C[C@H]2[C@@H]3CCC4=CC(=O)CC[C@@H]4[C@H]3CC[C@]2(C)[C@H]1O` [B, 16ß-Ethyl-17ß-hydroxy-4-estren-3-on, reference compound], the “Testosteronpropionat-Hemmung Prostata” value was 0% and the “Testosteronpropionat-Hemmung Samenblase” value was found to be 13%.
